Assay results as given in patent US8686150B2 (Sanofi, priority 2011, dated 2014).

These compounds were tested against T1, human full-length recombinant PKC βII (Homo sapiens, UniProt P05771) (assay: Determination of PKC βII inhibition (Caliper mobility-shift kinase assay, Fluorescein-RFARKGSLRQKNV peptide substrate)). Conditions: example compounds at a final concentration of 1.14 μM (±0.15 μM).
T1 construct: Active human full-length recombinant PKC βII; purchased Invitrogen GmbH, Darmstadt, Germany
T1 sequence (P05771 1-673 isoform P05771-2): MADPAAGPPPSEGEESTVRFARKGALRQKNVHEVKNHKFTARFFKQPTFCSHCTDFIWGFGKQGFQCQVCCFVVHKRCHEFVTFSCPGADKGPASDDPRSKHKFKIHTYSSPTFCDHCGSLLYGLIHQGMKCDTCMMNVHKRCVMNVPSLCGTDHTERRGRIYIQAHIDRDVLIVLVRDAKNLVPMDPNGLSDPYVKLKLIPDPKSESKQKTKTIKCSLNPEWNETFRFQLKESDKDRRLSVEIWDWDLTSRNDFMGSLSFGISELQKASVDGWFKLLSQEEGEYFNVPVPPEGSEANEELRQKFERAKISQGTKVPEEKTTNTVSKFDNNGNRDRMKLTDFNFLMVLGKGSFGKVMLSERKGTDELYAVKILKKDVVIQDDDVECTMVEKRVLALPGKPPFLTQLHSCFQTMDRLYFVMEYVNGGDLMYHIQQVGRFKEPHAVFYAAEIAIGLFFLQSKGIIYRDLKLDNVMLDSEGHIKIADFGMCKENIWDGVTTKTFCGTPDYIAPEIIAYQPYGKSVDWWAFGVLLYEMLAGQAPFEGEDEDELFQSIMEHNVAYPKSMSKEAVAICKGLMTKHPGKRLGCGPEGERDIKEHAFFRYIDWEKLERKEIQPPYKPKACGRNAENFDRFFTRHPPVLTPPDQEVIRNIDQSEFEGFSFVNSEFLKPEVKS
Assay type: biochemical
Method in brief: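 Compounds were tested at 1.14 μM final. Enzyme was activated by PS, DAG and CaCl2 in Hepes pH 7.4 with MgCl2, with substrate 3 μM and ATP 120 μM as pre-mix concentrations. After 60 min at 32 °C and an EDTA stop, Caliper separation gave fractional turnover, which was normalised to no-compound and no-enzyme controls.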
`CNC1CCN(C(=O)c2cc(-c3ccc(O)cc3F)nc3[nH]nc(C)c23)CC1` [Example 58, [6-(2-Fluoro-4-hydroxy-phenyl)-3-methyl-1H-pyrazolo[3,4-b]pyridin-4-yl]-(4-methylamino-piperidin-1-yl)-methanone] gave an inhibition at 1.14 µM of 93%. `Cc1n[nH]c2nc(-c3ccc(O)cc3F)cc(C(=O)N3CCC[C@@H](CN)C3)c12` [Example 59, ((S)-3-Aminomethyl-piperidin-1-yl)-[6-(2-fluoro-4-hydroxy-phenyl)-3-methyl-1H-pyrazolo[3,4-b]pyridin-4-yl]-methanone] gave an inhibition at 1.14 µM of 80%. In the case of `Cc1n[nH]c2nc(-c3ccc(O)cc3F)cc(C(=O)N3CCNCC3C(F)(F)F)c12` (stereo not drawn) [Example 60, [6-(2-Fluoro-4-hydroxy-phenyl)-3-methyl-1H-pyrazolo[3,4-b]pyridin-4-yl]-(2-trifluoromethyl-piperazin-1-yl)-methanone], the inhibition at 1.14 µM is reported as 98%. In the case of `Cc1n[nH]c2nc(-c3ccc(O)cc3F)cc(C(=O)NCC3(N)CCCCCC3)c12` [Example 61, 6-(2-Fluoro-4-hydroxy-phenyl)-3-methyl-1H-pyrazolo[3,4-b]pyridine-4-carboxylic acid (1-amino-cycloheptylmethyl)-amide], the inhibition at 1.14 µM is reported as 92%. `CCC1(NC(=O)c2cc(-c3ccc(O)cc3F)nc3[nH]nc(C)c23)CCCNC1` (stereo not drawn) [Example 62, 6-(2-Fluoro-4-hydroxy-phenyl)-3-methyl-1H-pyrazolo[3,4-b]pyridine-4-carboxylic acid (3-ethyl-piperidin-3-yl)-amide] was tested, and the inhibition at 1.14 µM was 100%. `Cc1n[nH]c2nc(-c3ccc(O)cc3F)cc(C(=O)N3CC(C)(C)NCC3(C)C)c12` [Example 63, [6-(2-Fluoro-4-hydroxy-phenyl)-3-methyl-1H-pyrazolo[3,4-b]pyridin-4-yl]-(2,2,5,5-tetramethyl-piperazin-1-yl)-methanone] showed an inhibition at 1.14 µM of 100%. `Cc1n[nH]c2nc(-c3ccc(O)cc3F)cc(C(=O)N3CCNCC34CC4)c12` [Example 64, (4,7-Diaza-spiro[2.5]oct-4-yl)-[6-(2-fluoro-4-hydroxy-phenyl)-3-methyl-1H-pyrazolo[3,4-b]pyridin-4-yl]-methanone] was tested, and the inhibition at 1.14 µM was 98%. Compound `CCC(CCN)NC(=O)c1cc(-c2ccc(O)cc2F)nc2[nH]nc(C)c12` (stereo not drawn) [Example 65, 6-(2-Fluoro-4-hydroxy-phenyl)-3-methyl-1H-pyrazolo[3,4-b]pyridine-4-carboxylic acid (3-amino-1-ethyl-propyl)-amide] has an inhibition at 1.14 µM of 94%. `Cc1n[nH]c2nc(-c3ccc(O)cc3F)cc(C(=O)NC(C)(C)CCN)c12` [Example 66, 6-(2-Fluoro-4-hydroxy-phenyl)-3-methyl-1H-pyrazolo[3,4-b]pyridine-4-carboxylic acid (3-amino-1,1-dimethyl-propyl)-amide] was tested, and the inhibition at 1.14 µM was 93%. `Cc1n[nH]c2nc(-c3ccc(O)cc3F)cc(C(=O)NCCC(C)(C)N)c12` [Example 67, 6-(2-Fluoro-4-hydroxy-phenyl)-3-methyl-1H-pyrazolo[3,4-b]pyridine-4-carboxylic acid (3-amino-3-methyl-butyl)-amide] was tested, and the inhibition at 1.14 µM was 86%. `CCC[C@H]1CN(C(=O)c2cc(-c3ccc(O)cc3)nc3[nH]nc(C)c23)CCN1` [Example 68, [6-(4-Hydroxy-phenyl)-3-methyl-1H-pyrazolo[3,4-b]pyridin-4-yl]-((S)-3-propyl-piperazin-1-yl)-methanone] gave an inhibition at 1.14 µM of 88%. With `COc1ccc(C2CNCCN2C(=O)c2cc(-c3ccc(O)cc3)nc3[nH]nc(C)c23)cc1` (stereo not drawn) [Example 69, [6-(4-Hydroxy-phenyl)-3-methyl-1H-pyrazolo[3,4-b]pyridin-4-yl]-[2-(4-methoxy-phenyl)-piperazin-1-yl]-methanone] the inhibition at 1.14 µM was 100%. `Cc1n[nH]c2nc(-c3ccc(O)cc3)cc(C(=O)N3CC(C)NCC3c3ccccc3)c12` (stereo not drawn) [Example 70, [6-(4-Hydroxy-phenyl)-3-methyl-1H-pyrazolo[3,4-b]pyridin-4-yl]-(5-methyl-2-phenyl-piperazin-1-yl)-methanone] was tested, and the inhibition at 1.14 µM was 92%. `Cc1n[nH]c2nc(-c3ccc(O)cc3)cc(C(=O)N3CC4CCC3CN4)c12` (stereo not drawn) [Example 71, 2,5-Diaza-bicyclo[2.2.2]oct-2-yl-[6-(4-hydroxy-phenyl)-3-methyl-1H-pyrazolo[3,4-b]pyridin-4-yl]-methanone] showed an inhibition at 1.14 µM of 95%. For `COc1cccc(C2CNCCN2C(=O)c2cc(-c3ccc(O)cc3)nc3[nH]nc(C)c23)c1` (stereo not drawn) [Example 72, [6-(4-Hydroxy-phenyl)-3-methyl-1H-pyrazolo[3,4-b]pyridin-4-yl]-[2-(3-methoxy-phenyl)-piperazin-1-yl]-methanone], the inhibition at 1.14 µM was 94%. Work on `Cc1n[nH]c2nc(-c3ccc(O)cc3)cc(C(=O)NC3CCNCC3)c12` [Example 74, 6-(4-Hydroxy-phenyl)-3-methyl-1H-pyrazolo[3,4-b]pyridine-4-carboxylic acid piperidin-4-ylamide] yielded an inhibition at 1.14 µM of 47%. With `Cc1n[nH]c2nc(-c3ccc(O)cc3)cc(C(=O)N3CCCNCC3)c12` [Example 75, [1,4]Diazepan-1-yl-[6-(4-hydroxy-phenyl)-3-methyl-1H-pyrazolo[3,4-b]pyridin-4-yl]-methanone] the inhibition at 1.14 µM was 89%. In the case of `Cc1n[nH]c2nc(-c3ccc(O)cc3)cc(C(=O)N3CCCC(N)C3)c12` (stereo not drawn) [Example 76, (3-Amino-piperidin-1-yl)-[6-(4-hydroxy-phenyl)-3-methyl-1H-pyrazolo[3,4-b]pyridin-4-yl]-methanone], the inhibition at 1.14 µM is reported as 88%. `Cc1n[nH]c2nc(-c3ccc(O)cc3)cc(C(=O)N[C@H]3CC[C@H](N)CC3)c12` [Example 77, 6-(4-Hydroxy-phenyl)-3-methyl-1H-pyrazolo[3,4-b]pyridine-4-carboxylic acid (trans-4-amino-cyclohexyl)-amide] was tested, and the inhibition at 1.14 µM was 60%. In the case of `COc1ccccc1C1CNCCN1C(=O)c1cc(-c2ccc(O)cc2)nc2[nH]nc(C)c12` (stereo not drawn) [Example 79, [6-(4-Hydroxy-phenyl)-3-methyl-1H-pyrazolo[3,4-b]pyridin-4-yl]-[2-(2-methoxy-phenyl)-piperazin-1-yl]-methanone], the inhibition at 1.14 µM is reported as 82%. `Cc1n[nH]c2nc(-c3ccc(O)cc3)cc(C(=O)N3CCNCC34CC4)c12` [Example 80, (4,7-Diaza-spiro[2.5]oct-4-yl)-[6-(4-hydroxy-phenyl)-3-methyl-1H-pyrazolo[3,4-b]pyridin-4-yl]-methanone] showed an inhibition at 1.14 µM of 91%. `Cc1n[nH]c2nc(-c3ccc(O)cc3)cc(C(=O)N3C[C@H](C)NC[C@H]3C)c12` [Example 81, ((2R,5S)-2,5-Dimethyl-piperazin-1-yl)-[6-(4-hydroxy-phenyl)-3-methyl-1H-pyrazolo[3,4-b]pyridin-4-yl]-methanone] was tested, and the “% Inhibition” value was 76%. `Cc1n[nH]c2nc(-c3ccc(O)cc3)cc(C(=O)N3CCNC[C@@H]3c3cccc(F)c3)c12` [Example 82, [(S)-2-(3-Fluoro-phenyl)-piperazin-1-yl]-[6-(4-hydroxy-phenyl)-3-methyl-1H-pyrazolo[3,4-b]pyridin-4-yl]-methanone] gave an inhibition at 1.14 µM of 92%. Compound `Cc1n[nH]c2nc(-c3ccc(O)cc3)cc(C(=O)N3C[C@@H](C)NC[C@H]3C)c12` [Example 83, ((2R,5R)-2,5-Dimethyl-piperazin-1-yl)-[6-(4-hydroxy-phenyl)-3-methyl-1H-pyrazolo[3,4-b]pyridin-4-yl]-methanone] has an inhibition at 1.14 µM of 104%. Compound `Cc1n[nH]c2nc(-c3ccc(O)cc3)cc(C(=O)N3CCNCC3c3ccc(F)cc3)c12` (stereo not drawn) [Example 84, [2-(4-Fluoro-phenyl)-piperazin-1-yl]-[6-(4-hydroxy-phenyl)-3-methyl-1H-pyrazolo[3,4-b]pyridin-4-yl]-methanone] has an inhibition at 1.14 µM of 101%. Compound `Cc1n[nH]c2nc(-c3ccc(O)cc3)cc(C(=O)N3CCNCC3c3cccc(F)c3F)c12` (stereo not drawn) [Example 85, [2-(2,3-Difluoro-phenyl)-piperazin-1-yl]-[6-(4-hydroxy-phenyl)-3-methyl-1H-pyrazolo[3,4-b]pyridin-4-yl]-methanone] has an inhibition at 1.14 µM of 98%. `Cc1n[nH]c2nc(-c3ccc(O)cc3)cc(C(=O)N3CCNC(C4CC4)C3)c12` (stereo not drawn) [Example 86, (3-Cyclopropyl-piperazin-1-yl)-[6-(4-hydroxy-phenyl)-3-methyl-1H-pyrazolo[3,4-b]pyridin-4-yl]-methanone] gave an inhibition at 1.14 µM of 96%. With `Cc1n[nH]c2nc(-c3ccc(O)cc3)cc(C(=O)N3CCNCC3c3cc(F)cc(F)c3)c12` (stereo not drawn) [Example 87, [2-(3,5-Difluoro-phenyl)-piperazin-1-yl]-[6-(4-hydroxy-phenyl)-3-methyl-1H-pyrazolo[3,4-b]pyridin-4-yl]-methanone] the inhibition at 1.14 µM was 93%. `Cc1n[nH]c2nc(-c3ccc(O)cc3)cc(C(=O)N3C[C@H](C)NC[C@@H]3C)c12` [Example 88, ((2S,5S)-2,5-Dimethyl-piperazin-1-yl)-[6-(4-hydroxy-phenyl)-3-methyl-1H-pyrazolo[3,4-b]pyridin-4-yl]-methanone] showed an inhibition at 1.14 µM of 101%. With `Cc1n[nH]c2nc(-c3ccc(O)cc3)cc(C(=O)N3CCNCC3c3ccc(Br)cc3)c12` (stereo not drawn) [Example 89, [2-(4-Bromo-phenyl)-piperazin-1-yl]-[6-(4-hydroxy-phenyl)-3-methyl-1H-pyrazolo[3,4-b]pyridin-4-yl]-methanone] the inhibition at 1.14 µM was 92%. In the case of `Cc1n[nH]c2nc(-c3ccc(O)cc3)cc(C(=O)N3CC(CN)C3)c12` [Example 90, (3-Aminomethyl-azetidin-1-yl)-[6-(4-hydroxy-phenyl)-3-methyl-1H-pyrazolo[3,4-b]pyridin-4-yl]-methanone], the inhibition at 1.14 µM is reported as 96%. `Cc1n[nH]c2nc(-c3ccc(O)cc3)cc(C(=O)N3CCNCC3c3cccc(F)c3)c12` (stereo not drawn) [Example 91, [2-(3-Fluoro-phenyl)-piperazin-1-yl]-[6-(4-hydroxy-phenyl)-3-methyl-1H-pyrazolo[3,4-b]pyridin-4-yl]-methanone] gave an inhibition at 1.14 µM of 93%. Compound `Cc1n[nH]c2nc(-c3ccc(O)cc3)cc(C(=O)N3CCNCC3c3ccc(F)c(F)c3)c12` (stereo not drawn) [Example 92, [2-(3,4-Difluoro-phenyl)-piperazin-1-yl]-[6-(4-hydroxy-phenyl)-3-methyl-1H-pyrazolo[3,4-b]pyridin-4-yl]-methanone] has an inhibition at 1.14 µM of 95%.
